Read-outs that look alike come from different tables or passages of the source.
Key:
[1] = Total Antioxidant Capacity Assay (Trolox standard curve, Cu+2 probe); conditions: 10 mM antioxidant, compared with trolox
Experimental: Activity of antioxidants. […] A standard curve correlating the Trolox concentration to the antioxidant capacity was generated according to manufacturer's protocol. […] Two million 16HBE cells were seeded into each well of a 12-well plate and incubated overnight as described above. […] Finally, the insoluble cell debris was removed by centrifugation and the supernatant analyzed as described above to determine the total antioxidant capacity. All experiments were performed with 4 technical replicates and two biological replicates.

16HBE cells [2] = system: 16HBE cells
Experimental: Cells were seeded at a density of 25,000 cells/well in a 96-well plate and incubated overnight as described above. […] ALAMARBLUE® test reagent was added to each well, and the plates were incubated as described above. At 8-hour and 24-hour timepoints, absorbance was measured at 570 and 600 nm, normalized to media only controls, and analyzed per manufacturer's instructions. All experiments were performed with 6 technical replicates and 3 biological replicates.
Statistics. All data were analyzed using GraphPad Prism 7 (GraphPad Software, Inc., La Jolla, Calif.). […] Additionally, non-linear regression was used to deduce the lethal dose at median cell viability (LD50) for cell viability assays.

16HBE cells [3] = test: ATP content (ATP determination kit); type: cell-based, human; conditions: 10 mM NAC pre-incubation, silver acetate 8 h, vs cells exposed to silver alone
Experimental: 50,000 16HBE cells were seeded in each well of a 96-well plate and the cells were allowed to attach. At 24 h, media was aspirated, and cells were pre-incubated with 80 μL of 0 or 10 mM concentrations of NAC for 2 h. […] Finally, the cell lysate was collected and the ATP concentration determined and correlated to an established standard curve. Briefly, a standard reaction mixture consisting of molecular grade water, reaction buffer, Dithiothreitol (DTT) solution, D-luciferin, and firefly luciferase at manufacturer recommended concentrations was prepared. Next, 10 μL of standard ATP solution or cell lysate was mixed with 90 μL standard reaction mixture in a 96-well white bottom plate and luminescence was measured at 560 nm. Background luminescence was subtracted from all readings and the data were normalized to drug free controls.

[4] = system: human bronchial epithelial (16HBE) cells; test: Cellular ROS/Superoxide Detection Assay in silver-exposed cells; type: cell-based
Experimental: Cellular ROS and superoxide levels were measured in 16HBE cells using a Cellular ROS/Superoxide Detection Assay Kit according to manufacturer's recommended protocol. Briefly, cells were seeded at a density of 25,000 cells/well in a black wall/clear bottom 96-well plate and incubated for 24 h as described above. Next, the feeding media was aspirated and cells were incubated with fresh media supplemented with or without 10 mM NAC for 2 h. […] Upon staining, the fluorescence signal from the two fluorescent dyes, green signal from ROS detection probe (Ex/Em=490/525 nm) and orange signal from superoxide detection probe (Ex/Em=550/620 nm), were quantified using a BioTek Instruments Cytation 5 Multimode Reader at 0, 4, 6, 8, and 24 h. […] All experiments were performed with 6 technical replicates and a minimum of 2 biological replicates.

16HBE cells [5] = test: Glucose/lactate (BioProfile analyzer) and metabolite pool size and labeling (GC-MS); type: cell-based, human
Experimental: Analysis of total metabolite pool size and metabolite labeling patterns using Gas Chromatography-Mass Spectroscopy. 16HBE cells were seeded at a density of 250,000 cells per dish in a 60 mm cell culture dish and incubated until they reached 90% confluency. During this period, feeding media was replaced every 48 h. Once confluent, the media was aspirated, cells were washed with 1× PBS, and incubated with 2 mL 0 or 10 mM NAC for 2 h. […] At 8 h, the feeding medium from each plate was collected, centrifuged at 1000 rpm for 5 min to remove any cell debris, and frozen at −80° C., until further analysis. The cells were washed twice with 1× PBS, re-suspended by gentle scraping in 1 mL chilled 50% methanol solution, cell lysate collected in centrifuge tubes, flash frozen using liquid nitrogen, and stored at −80° C. till analysis.
MEM and stock solution of 4 mM GLN-10 mM D-[U^13C]-GLC medium treated in an identical manner were used as controls.
Cell suspensions frozen in 50% methanol were thawed and subjected to three additional freeze-thaw cycles using liquid nitrogen and a water bath. Subsequently, the cell suspensions were centrifuged at 14,000 rpm for 10 min to remove cell debris, and the supernatants were transferred to individually labeled glass drying tubes. 10 μl of an internal standard (50 nmols of sodium 2-oxobutyrate) was added to each tube at this time, and the samples were air-dried on a heat block. The dried samples were derivatized by addition of 100 μl of Tri-sil HTP reagent (Thermo Scientific) to each tube, capping the tube, vortexing the samples, and placing them on the heat block for an additional 30 min. The derivatized samples were transferred to auto-injector vials and analyzed using gas chromatography-mass spectroscopy (GC-MS; Agilent Technologies, Santa Clara, Calif.). Separately, the cell pellets with residual cell lysate was collected, contents thoroughly mixed with 200 μL 0.1 N sodium hydroxide, and heated to 100° C. to extract and solubilize the proteins. The samples were cooled and analyzed using a standard BCA assay to quantify the protein content. All metabolite concentrations determined using the BioProfile Basic-4 analyzer (NOVA) and GC-MS were normalized with the protein content.

[6] = system: 31 P. aeruginosa isolates; test: MIC90/MBC90 over expanded isolate panel; type: cell-based, Pseudomonas aeruginosa
[7] = 50 μg/mL silver acetate after 10 mM antioxidant pre-incubation

| Compound | antioxidant capacity, trolox equivalent [1] | cell survival (16HBE cells [2]; [7]) | cell survival (16HBE cells [2]; 7.5 and 10 mM ascorbic acid pre-incubation, up to 100 μg/mL silver acetate) | ATP production (16HBE cells [3]) | effect of NAC pre-incubation itself on superoxide levels [4] | superoxide levels ([4]; 10 mM NAC pre-incubation, 10, 20, and 50 μg/mL silver acetate, 8 and 24 hours) | ROS levels ([4]; 10 mM NAC pre-incubation, silver acetate higher than 20 μg/mL, 8 and 24 hours) | superoxide levels ([4]; NAC pre-incubation, 100 μg/mL silver acetate, 8 hours) | superoxide levels ([4]; NAC pre-incubation, 100 μg/mL silver acetate, 24 hours) | ROS induced by NAC pre-incubation itself ([4]; subsides after 8 hours) | lactate levels (GC-MS) (16HBE cells [5]; NAC pre-incubated cells, 50 μg/mL silver acetate only) | citrate, glutamate, fumarate, and malate levels (16HBE cells [5]; NAC pre-incubated cells, 30, 40, 50, and 75 μg/mL silver acetate) | aspartate levels (16HBE cells [5]; NAC pre-incubated cells, 50 and 75 μg/mL silver acetate) | glucose consumption and lactate production (16HBE cells [5]; cells pre-treated with 0 vs 10 mM NAC) | labeling patterns of key metabolites (16HBE cells [5]; pre-incubation with NAC) | MBC90 ([6]; concentration required to eradicate 90% of 31 P. aeruginosa isolates) | MIC90 ([6]; concentration required to inhibit 90% of 31 P. aeruginosa isolates) |
| --- | --- | --- | --- | --- | --- | --- | --- | --- | --- | --- | --- | --- | --- | --- | --- | --- | --- |
| O=C1O[C@H]([C@@H](O)CO)C(O)=C1O [Ascorbic Acid, ascorbic acid] | 40 fold | 22% | significantly (p<0.05) higher |  |  |  |  |  |  |  |  |  |  |  |  |  |  |
| CC(=O)N[C@@H](CS)C(=O)O [NAC, N-acetyl cysteine] |  | 86% |  | significantly higher | no effect | significantly (p≤0.001) lower | significantly (p≤0.001) lower | significantly (p≤0.01) lower | not at 24 hours | initially induces ROS | significantly higher | significantly (p≤0.05) higher | significantly (p≤0.05) higher | No significant difference | does not appreciably alter |  |  |
| CC(C)Cc1ccc(C(C)C(=O)O)cc1.[Ag] (stereo not drawn) [Silver Ibuprofen, silver salt of ibuprofen] |  |  |  |  |  |  |  |  |  |  |  |  |  |  |  | 4 µg/mL | 4 µg/mL |

Reference: US20220183994A1, “DELIVERY DEVICES FOR LOCALIZED DELIVERY OF ANTIMICROBIAL, ANTI-INFLAMMATORY, AND ANTIOXIDANT AGENTS” (priority 2019, published 2022)
